The values that follow come from patent publication US20210230179A1, “THIENO[2,3-B]PYRIDINE DERIVATIVES AS EPAC INHIBITORS AND THEIR PHARMACEUTICAL USES” (INSTITUT NATIONAL DE LA SANTE ET DE LA RECHERCHE MEDICALE …, priority 2018, published 2021).

Where two headings read alike, the source gives them in different places.

In one data set the test system is wild-type C57BL/6 mice. The data set can be described thus: chronic ISO infusion (chronic β-AR activation): cardiac function, remodelling, tolerability. An excerpt:
FIG. 17: AST and ALT activities in the serum of mice treated under the indicated conditions (left panel) (n=7 per group). Comparison of FS in animals between day 1 and day 14 in the presence or absence of AM-001 (right panel) (n=12 per group).
FIG. 18: LVW/TL ratios of mice after 14 days of treatment with vehicle or AM-001.
FIG. 20: Comparison of FS, LVIDs and LVIDd in ISO treated animals between day 1 and day 14 in the presence or absence of AM-001 (n=18-20 per group).
FIG. 21: Representative immunoblots of Epac1, GRK2, and GRK5. Statistical significance was determined by two-way ANOVA followed by Bonferroni post-test. * p<0.05, ** p<0.01, *** p<0.001, **** p<0.0001 vs indicated values. ns, not significant.
Osmotic mini-pumps (Alzet) were implanted subcutaneously in mice anaesthetized with isoflurane (1%). Pumps were filled with ISO or sterile saline and were set to deliver ISO at 60 mg/kg per day for 14 days to induce cardiac hypertrophy. AM-001 treatment (10 mg/kg/d diluted in 10% DMSO/20% Kolliphor/70% sterile saline) is given from the third day of ISO infusion. Mice were subsequently euthanized with barbiturate overdose (pentobarbital, 150 mg/kg, i.p.) and mini-pumps were weighed in order to verify complete diffusion.
Echocardiography was carried out on lightly anaesthetized (1% isoflurane in air) mice placed on a heating pad. The left ventricle dimensions were obtained during TimeMouvement mode acquisition from the parasternal short-axis view at the midventricular level of the papillary muscles using a Vevo2100 ivid7 echograph and a […] transducer (M550i13L, VisualsonicsGE Healthcare). Images were transferred and analysed off line with Vevolab software EchoPAC (GE Healthcare).
Determination of fibrosis Hearts were transversely sectioned at 10 μm thickness, fixed with 4% paraformaladehyde and stained with Sirius Red. Slides were scanned with NanoZoomer (Hamamatsu v1.2) and fibrosis was measured as positively stained area with Sirius Red and expressed as percent of total area, using ImageJ software (RSB).
Hearts were collected, fixed in 4% paraformaldehyde, dehydrated, and embedded in OCT tissue embedding compound (Tissue Tek, EMS). Longitudinal sections were performed at 10 μm in thickness and stained with hematoxylin and eosin for histological examination.
Aspartate aminotransferase (AST) and alanine aminotransferase (ALT) were measured in serum to determine the cytotoxicity, using specific kits purchased from ScienCell Research Laboratories following the manufacturer's instructions.
The inventors next sought to determine whether AM-001 could provide improvement in cardiac function and remodelling during chronic p-AR activation.

In a further data set the target is T1, Epac1 (Homo sapiens, UniProt O95398).
T1 sequence (O95398 191-923 limits assumed): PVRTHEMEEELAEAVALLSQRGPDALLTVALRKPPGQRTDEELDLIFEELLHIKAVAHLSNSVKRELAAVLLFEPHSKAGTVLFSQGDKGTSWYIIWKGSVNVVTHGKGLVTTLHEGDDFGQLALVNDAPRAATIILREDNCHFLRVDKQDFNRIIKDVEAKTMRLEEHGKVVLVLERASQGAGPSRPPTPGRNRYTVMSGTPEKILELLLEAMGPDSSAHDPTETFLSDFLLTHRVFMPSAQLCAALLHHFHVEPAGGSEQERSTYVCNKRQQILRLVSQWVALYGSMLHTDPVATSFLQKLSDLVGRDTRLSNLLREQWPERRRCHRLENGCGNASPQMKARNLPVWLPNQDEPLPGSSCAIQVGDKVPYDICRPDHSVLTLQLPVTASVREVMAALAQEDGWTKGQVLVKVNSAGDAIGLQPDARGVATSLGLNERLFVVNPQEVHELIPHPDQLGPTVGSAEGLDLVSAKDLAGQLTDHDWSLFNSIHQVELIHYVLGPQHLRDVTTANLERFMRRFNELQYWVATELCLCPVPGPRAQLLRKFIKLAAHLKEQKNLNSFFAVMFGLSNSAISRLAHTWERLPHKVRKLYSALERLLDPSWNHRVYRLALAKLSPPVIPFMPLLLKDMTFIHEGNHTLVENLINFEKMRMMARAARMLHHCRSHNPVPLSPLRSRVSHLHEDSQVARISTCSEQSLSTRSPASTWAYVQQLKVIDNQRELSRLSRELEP
As to the kind of experiment: biochemical. Conditions: for IC50: read-out: IC50, Epac1 GEF activity. An excerpt: FIGS. 4-8. […] Variations of relative fluorescence units (RFU) were studied as a function of time and fitted to single exponentials.

Setting [1] is: ISO 60 mg/kg per day 14 days, AM-001 10 mg/kg from day 3.

Consider `Nc1c(C(=O)Nc2ccc(F)cc2)sc2nc(-c3cccs3)cc(-c3ccccc3)c12` [AM-001, 3-amino-N-(4-fluorophenyl)-4-phenyl-6-(thiophen-2-yl)thieno[2,3-b]pyridine-2-carboxamide], for which, in the data set on wild-type C57BL/6 mice (10 mg/kg i.p. day 3 to day 14), the “liver and renal histology (H & E staining)” value is given as “did not display any apparent histological alterations”; the “plasma level of alanine aminotransferase (ALT)” value is “equivalent in each group”; the “plasma level of aspartate aminotransferase (AST)” value is “equivalent in each group”. Also, in the data set on wild-type C57BL/6 mice (setting [1]), the “LVW/TL ratio under ISO” value is “further decreased” and the “fibrosis (Sirius Red positive area, percent of total area)” value is recorded as 1.1±0.5%. Also, in the data set on wild-type C57BL/6 mice (during ISO treatment), the “left ventricular end-diastolic internal diameter (LVIDd)” value is “decrease” and the “left ventricular end-systolic internal diameter (LVIDs)” value was “decrease”. Moreover, in the data set with wild-type C57BL/6 mice (immunoblot, ISO treated animals), the “ISO-induced upregulation of GRK5 expression” value was “significantly reduced”. In the data set with wild-type C57BL/6 mice (vs vehicle treated mice), the “fractional shortening (FS) after 14 days of ISO” value is given as “higher FS”. On Epac1 (30 μM Sp-8-CPT, 20 μM inhibitor), the “effect on Epac1 GEF (exchange) activity” value is “prevented Epac1 GEF activity”. Further, the IC50 (usually the concentration needed to halve the response being measured) on Epac1 (Sp-8-CPT at its EC50 for the isoform) amounted to 47.8 ± 1.1 µM. Further, at Epac1 (saturating concentration of Sp-8-CPT), the half-maximal inhibitory concentration (IC50) turned out to be 48.5 ± 1 µM.
